Test results as given in patent US20100298141A1, “SUBSTITUTED PYRIDINE N-OXIDE HERBICIDES” (E. I. DU PONT DE NEMOURS AND COMPANY, priority 2007, published 2010).

What was measured:
Goosegrass = assay: Test C pre-/postemergence test; format: in vivo, Eleusin indica; conditions: Preemergence
Procedure, shortened: (§1)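 Test chemicals were formulated with surfactant in a non-phytotoxic solvent and sprayed both on freshly planted seeds (preemergence) and on 1- to 4-leaf plants of 2–18 cm (postemergence). Flooded-paddy pots received compound directly into 3 cm of standing water, maintained for the test.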

crabgrass = assay: Test A pre-/postemergence greenhouse test; format: in vivo, Digitaria sanguinalis; conditions: for Crabgrass, Large plant response rating: 0 to 100 scale
Procedure, shortened: (§2)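 Each test compound, dissolved in a non-phytotoxic solvent mixture with surfactant, was sprayed directly onto seeded soil (loam/sand blend) and, at the same moment, onto seedlings carrying one to two leaves. Around ten greenhouse days later, plants were rated visually for injury relative to untreated controls.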

wheat = assay: Test C pre-/postemergence test; format: in vivo, Triticum aestivum; conditions: Preemergence
Procedure, shortened: as §1

common ragweed = assay: Test C pre-/postemergence test; format: in vivo, Ambrosia elation; conditions: Preemergence
Procedure, shortened: as §1

green foxtail = assay: Test C pre-/postemergence test; format: in vivo, Setaria viridis; conditions: Preemergence
Procedure, shortened: as §1

wild oat = assay: Test C pre-/postemergence test; format: in vivo, Avena fatua; conditions: Preemergence
Procedure, shortened: as §1

morningglory = assay: Test A pre-/postemergence greenhouse test; format: in vivo, Ipomoea spp.; conditions: for Morningglory plant response rating: 0 to 100 scale
Procedure, shortened: as §2

Italian ryegrass = assay: Test C pre-/postemergence test; format: in vivo, Lolium multiflorum; conditions: Preemergence
Procedure, shortened: as §1

yellow nutsedge = assay: Test C pre-/postemergence test; format: in vivo, Cyperus esculentus; conditions: Preemergence
Procedure, shortened: as §1

corn = assay: Test C pre-/postemergence test; format: in vivo, Zea mays
Procedure, shortened: as §1

redroot pigweed = assay: Test A pre-/postemergence greenhouse test; format: in vivo, Amaranthus retroflexus; conditions: for Pigweed plant response rating: 0 to 100 scale
Procedure, shortened: as §2

blackgrass = assay: Test C pre-/postemergence test; format: in vivo, Alopecurus myosuroides
Procedure, shortened: as §1

eastern black nightshade = assay: Test C pre-/postemergence test; format: in vivo, Solanum ptycanthum; conditions: Preemergence
Procedure, shortened: as §1

woolly cupgrass = assay: Test C pre-/postemergence test; format: in vivo, Eriochloa villosa; conditions: Preemergence
Procedure, shortened: as §1

umbrella sedge = assay: Test C flooded paddy test; format: in vivo, Cyperus difformis; conditions: Flood
Procedure, shortened: (§3)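 Flooded 3 cm over soil; compound into paddy water; depth kept constant. Greenhouse 13–15 d.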

[1] = test system: common (oilseed) sunflower; assay: Test C pre-/postemergence test; format: in vivo, Helianthus annuus; conditions: Preemergence
Procedure, shortened: as §1

duck salad = assay: Test C flooded paddy test; format: in vivo, Heteranthera limosa; conditions: Flood
Procedure, shortened: as §3

[2] = 31 g ai/ha, scale 0 to 100 (0 no effect, 100 complete control)
[3] = Postemergence, 125 g ai/ha, 0 is no effect, 100 is complete control
[4] = Postemergence, 500 g ai/ha, 0 is no effect, 100 is complete control
[5] = Preemergence, 125 g ai/ha, 0 no effect, 100 complete control
[6] = Preemergence, 500 g ai/ha, 0 to 100 scale where 0 is no effect and 100 is complete control
[7] = 62 g ai/ha, Preemergence, scale 0 to 100
[8] = Preemergence, 31 g ai/ha, scale 0 to 100 (0 no effect, 100 complete control)
[9] = preemergence, 125 g ai/ha, scale 0 (no effect) to 100 (complete control)
[10] = 62 g ai/ha, scale 0 to 100, 0 no effect, 100 complete control, 13 to 15 days
[11] = 125 g ai/ha, scale 0 to 100, 0 no effect, 100 complete control, 13 to 15 days

`Cn1nc(C(F)(F)F)c(C[S+]([O-])c2cccc[n+]2[O-])c1OCC(F)(F)F` (racemic) [Compound 28] was tested, and the “Goosegrass plant response rating” value (Goosegrass; 62 g ai/ha, scale 0 to 100) was 100, the “Plant response rating, Goosegrass” value (Goosegrass; [2]) was 100 and the “Plant response rating (0 to 100), Goosegrass” value (Goosegrass; 250 g ai/ha) was 100. The “Crabgrass, Large plant response rating” value (crabgrass; [3]) was 80, the “Crabgrass, Large plant response rating” value (crabgrass; [4]) was 90 and the “Crabgrass, Large plant response rating” value (crabgrass; [5]) was 100. The “Plant response rating, Crabgrass, Large” value (crabgrass; [6]) was 100, the “Wheat plant response rating” value (wheat; 62 g ai/ha, scale 0 to 100) was 40 and the “Plant response rating, Wheat” value (wheat; [2]) was 0. The “Ragweed plant response rating” value (common ragweed; 62 g ai/ha, scale 0 to 100) was 85, the “Plant response rating, Ragweed” value (common ragweed; [2]) was 65 and the “Foxtail, Green plant response rating” value (green foxtail; 62 g ai/ha, scale 0 to 100) was 100. For the same compound, the “Plant response rating, Foxtail, Green” value (green foxtail; [2]) was 100, the “Plant response rating (0 to 100), Foxtail, Green” value (green foxtail; 250 g ai/ha) was 100 and the “Oat, Wild plant response rating” value (wild oat; 62 g ai/ha, scale 0 to 100) was 75. The “Plant response rating, Oat, Wild” value (wild oat; [2]) was 70, the “Morningglory plant response rating” value (morningglory; [3]) was 60 and the “Morningglory plant response rating” value (morningglory; [4]) was 80. For the same compound, the “Morningglory plant response rating” value (morningglory; [5]) was 60, the “Plant response rating, Morningglory” value (morningglory; [6]) was 90 and the “Ryegrass, Italian plant response rating” value (Italian ryegrass; 62 g ai/ha, scale 0 to 100) was 85. For the same compound, the “Plant response rating, Ryegrass, Italian” value (Italian ryegrass; [2]) was 80, the “Nutsedge, Yellow plant response rating” value (yellow nutsedge; 62 g ai/ha, scale 0 to 100) was 80 and the “Plant response rating, Nutsedge, Yellow” value (yellow nutsedge; [2]) was 80. For the same compound, the “Corn plant response rating” value (corn; [7]) was 85, the “Plant response rating, Corn” value (corn; [8]) was 30 and the “Plant response rating (0 to 100), Corn” value (corn; Preemergence, 250 g ai/ha) was 100. For the same compound, the “Corn plant response rating” value (corn; [9]) was 100, the “Pigweed plant response rating” value (redroot pigweed; [3]) was 70 and the “Pigweed plant response rating” value (redroot pigweed; [4]) was 90. For the same compound, the “Pigweed plant response rating” value (redroot pigweed; [5]) was 100, the “Plant response rating, Pigweed” value (redroot pigweed; [6]) was 100 and the “Blackgrass plant response rating” value (blackgrass; [7]) was 100. For the same compound, the “Plant response rating, Blackgrass” value (blackgrass; [8]) was 100, the “Plant response rating (0 to 100), Blackgrass” value (blackgrass; Preemergence, 250 g ai/ha) was 100 and the “Blackgrass plant response rating” value (blackgrass; [9]) was 100. The “Nightshade plant response rating” value (eastern black nightshade; 62 g ai/ha, scale 0 to 100) was 100, the “Plant response rating, Nightshade” value (eastern black nightshade; [2]) was 90 and the “Cupgrass, Woolly plant response rating” value (woolly cupgrass; 62 g ai/ha, scale 0 to 100) was 100. The “Plant response rating, Cupgrass, Woolly” value (woolly cupgrass; [2]) was 70, the “Plant response rating (0 to 100), Cupgrass, Woolly” value (woolly cupgrass; 250 g ai/ha) was 100 and the “Plant response rating, Sedge, Umbrella” value (umbrella sedge; [2]) was 75. For the same compound, the “Plant response rating, Sedge, Umbrella” value (umbrella sedge; [10]) was 95, the “Plant response rating, Sedge, Umbrella” value (umbrella sedge; [11]) was 100 and the “Plant response rating, Sedge, Umbrella” value (umbrella sedge; 250 g ai/ha, scale 0 to 100, 0 no effect, 100 complete control, 13 to 15 days) was 100. For the same compound, the “Sunflower plant response rating” value ([1]; 62 g ai/ha, scale 0 to 100) was 85, the “Plant response rating, Sunflower” value [1, 2] was 50 and the “Plant response rating, Ducksalad” value (duck salad; [2]) was 65. For the same compound, the “Plant response rating, Ducksalad” value (duck salad; [10]) was 80, the “Plant response rating, Ducksalad” value (duck salad; [11]) was 95 and the “Plant response rating, Ducksalad” value (duck salad; 250 g ai/ha, scale 0 to 100 (0 no effect, 100 complete control)) was 95.
